Results on 1 compound are retold here after patent US5059601A, “Imidazolone derivatives with activity on central nervous system and antihypertensive activity, preparation methods thereof, and pharmaceutical compositions containing them” (Istituto Lusofarmaco d'Italia S.p.A., priority 1989, dated 1991).

Structures are written as SMILES. Some results are limits rather than exact numbers.

Data set [1] in a line: toxicity in rat (DL50, oral). The conditions noted are these: in vivo, read-out: toxicity in rat expressed as DL50.
In data set [2] the test system is SHR rat. The data set is described as follows: antihypertensive activity in SHR rat after oral administration. It counts as in vivo. The conditions noted are these: dose of 10 mg/kg/os. The source says: Said compounds have in vitro good affinity against D2, 5-HT2, α1 receptors determined towards [3H]Spiperone, [3H]-ketanserine, and [3H]-prazosine respectively, using the methods described by Y.Z. Fields, R.D. Reisine, H.I. Yamamura, Brain Research 136, 578 (1977); Y.E. Leysen, C.Y.E. Nyemegers, Y.M. Van Neuten, P.M. Endladurong, Mol Pharmacol. 21, 322 (1981); P. Greengrass, R. Bremner, Eur. J. Pharmacol. 55, 323 (1979). They show a reduced toxicity in vivo, a good activity on central nervous system in various behaviour tests (e.g. stereotypy caused by apomorfine, central dopaminergic neuronal firing) and a good antihypertensive activity (determined in SHR rat after oral administration using the method reported by J. Pfeffer and others, J. Lab. Clin. Med. 78, 957 (1971)).

In the case of `COc1ccccc1N1CCN(CCc2[nH]c(=O)[nH]c2-c2ccc(F)cc2)CC1` [4-(4-fluorophenyl)-1,3-dihydro-5-[2-(4-(2-methoxyphenyl)-1-piperazinyl)ethyl]-2H-imidazol-2-one], in data set [1], the LD50 is greater than 2000 mg/kg. The “decrease in systolic pressure” value in data set [2] was “about 21%”.
